# Laboratory results taken from PubChem BioAssay (NCI).
# Values joined by “and” are separate entries in the source; they are usually repeats but may differ in a detail not shown here. Identical values can stand only once.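 Tested at 5 concentrations; 48 h exposure; 96-well plates; endpoints linearly interpolated, else capped at highest concentration. GI50 = concentration required for 50% inhibition of growth. At the TGI there is no net growth.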
# Key:
# Experiment in all cases: NCI tumour cell line growth inhibition, 48 h
# [1] = tested on: MDA-N
# [2] = tested on: KM20L2 colon
# [3] = tested on: DLD-1 colon
# [4] = tested on: DMS 273 small cell lung
# [5] = tested on: DMS 114 small cell lung
# [6] = tested on: RXF-631 renal
# [7] = tested on: LXFL 529 NSCLC
# [8] = tested on: M19-MEL melanoma
# [9] = tested on: XF 498 CNS
# [10] = tested on: P388 leukemia
# [11] = tested on: SN12K1 renal
Structure (SMILES),TGI [1],TGI [2],TGI [3],TGI [4],TGI [5],TGI [7],TGI [8],TGI [9],also measured
O=C(CCl)N1CCN(c2ccccn2)CC1,42.4 µM,–,–,–,–,–,–,–,–
[pH]1p2[pH]p3p1p3[pH]2.c1cc[c]([Ge]([c]2ccccc2)[c]2ccccc2)cc1.c1cc[c]([Ge]([c]2ccccc2)[c]2ccccc2)cc1.c1cc[c]([Ge]([c]2ccccc2)[c]2ccccc2)cc1,–,34 µM,29.5 µM,32.5 µM,28.4 µM,24.3 µM,28.6 µM,–,GI50 [2]: 19.4 µM; GI50 [3]: 14.8 µM; GI50 [4]: 15.3 µM; GI50 [5]: 12.9 µM; GI50 [6]: 12.9 µM; TGI [6]: 27.5 µM; GI50 [7]: 11.6 µM; GI50 [8]: 14.4 µM
CC[C@@]1(O)C(=O)OCc2c1cc1n(c2=O)Cc2cc3cc(O)ccc3nc2-1,–,8.14 µM and 4.97 µM,75 µM and > 87.2 µM,0.47 µM and 1.74 µM,–,1.91 µM,0.589 µM and 1.01 µM,0.183 µM and 0.472 µM,GI50 [2]: 0.186 µM; GI50 [9]: 0.0518 µM; GI50 [3]: 0.514 µM; GI50 [4]: 0.0272 µM and 0.0217 µM; TGI [10]: 1.43 µM; TGI [11]: 0.937 µM; GI50 [8]: 0.0634 µM
CCN(CC)CCN1C(=O)c2c(c3c4cccc(Cl)c4n(C4OC(CO)C(OC)C(O)C4O)c3c3[nH]c4c(Cl)cccc4c23)C1=O (stereo not given),0.21 µM,0.0103 µM,–,–,–,–,–,0.284 µM,GI50 [2]: 0.000446 µM; GI50 [3]: 0.000403 µM; GI50 [4]: < 0.0001 µM; GI50 [5]: < 0.0001 µM; GI50 [7]: 0.000116 µM; GI50 [8]: 0.000144 µM
Cc1c(C(=O)/C=C/c2ccc([N+](=O)[O-])cc2)[n+](=O)c2ccccc2n1[O-],–,> 100 µM,> 100 µM,> 100 µM,> 100 µM,> 100 µM,> 100 µM,> 100 µM,–
Oc1ccc(I)c2cccnc12,–,> 100 µM,> 100 µM,14.1 µM,–,> 100 µM,76.8 µM,> 100 µM,–
O=C(CC(=O)N1N=C(n2ccc3ccccc32)CC1c1ccccc1)Nc1ccccc1Cl (stereo not given),–,> 100 µM,–,> 100 µM,> 100 µM,> 100 µM,> 100 µM,–,TGI [6]: > 100 µM
Cc1cc2c3c(nc4ccccc42)C(=O)c2cccnc2-c3n1,0.294 µM,–,–,–,–,–,–,–,GI50 [1]: 0.152 µM
NC(=S)N/N=C/C(O[C@@H](/C=N/NC(N)=S)CO)n1cnc2c(N)ncnc21 (stereo not given in full),–,> 100 µM,–,97.7 µM,> 55.9 µM,> 100 µM,> 100 µM,> 100 µM,TGI [6]: > 100 µM
CC1CN1c1c(C(=O)/C=C/c2ccc(F)cc2)c(-c2ccccc2)nn(C)c1=O (stereo not given),–,31.6 µM,25.4 µM,–,31.1 µM,31.7 µM,27.7 µM,28.8 µM,–
O=c1[nH]c(-c2ccccc2)nc2cc([N+](=O)[O-])c(/C(Cl)=C/c3ccccc3)cc12,–,> 100 µM,–,> 100 µM,> 100 µM,78.4 µM,> 100 µM,–,–
CC(=O)[CH-]C(=O)c1ccccc1.CC(=O)[CH-]C(=O)c1ccccc1.CC[C@H](CCC(C)[C@H]1CCC2[C@@H]3CC=C4C[C@@H]([O-])CC[C@]4(C)C3CC[C@@]21C)C(C)C.CC[C@H](CCC(C)[C@H]1CCC2[C@@H]3CC=C4C[C@@H]([O-])CC[C@]4(C)C3CC[C@@]21C)C(C)C.Cl.[Ti+4] (stereo not given in full),–,> 25 µM,> 25 µM,> 25 µM,–,> 25 µM,–,–,GI50 [2]: > 25 µM; GI50 [3]: > 25 µM; GI50 [4]: > 25 µM; GI50 [7]: > 25 µM
CC(=O)[CH-]C(=O)c1ccccc1.CC(=O)[CH-]C(=O)c1ccccc1.CC(=O)[CH-]C(=O)c1ccccc1.[Cl-].[Hf+4],–,> 100 µM,> 100 µM,–,–,> 100 µM,> 100 µM,–,GI50 [2]: 25.1 µM; GI50 [3]: 25.8 µM; GI50 [7]: 39.4 µM; GI50 [8]: 27.3 µM
CC(=O)NNc1nc(C)c(C(=O)/C=C/c2ccc(N(C)C)cc2)s1,–,> 100 µM,> 100 µM,> 100 µM,> 100 µM,–,–,–,TGI [6]: > 100 µM
O=C(CC(O)(C(F)(F)F)C(F)(F)F)c1cccs1,> 10 µM,–,–,–,–,–,–,–,–
C=CCc1cc(OC)c(O)c(C(=O)/C=C/c2ccc(OC)c(OC)c2)c1,–,–,37.2 µM,> 100 µM,52.1 µM,54.7 µM,–,27 µM,TGI [6]: 83.9 µM
O=C(Nc1ccc(Nc2ccc(NC(=O)c3ccccc3)c3c2C(=O)c2ccccc2C3=O)c2c1C(=O)c1ccccc1C2=O)c1ccccc1,–,> 100 µM,> 100 µM,> 100 µM,> 100 µM,> 100 µM,> 100 µM,–,TGI [6]: > 100 µM
COc1ccc(C(=O)C(c2ccc(OC)cc2)C2(O)C(=O)Nc3c(Cl)cc(Cl)cc32)cc1 (stereo not given),–,68 µM,39.3 µM,46.8 µM,42 µM,28.4 µM,–,47.2 µM,–
CN(C)Cc1ccc(O)c(CN(C)C)n1,> 100 µM,–,–,–,–,–,–,–,–
CC1(C)CCC2(C(=O)O)C(O)CC3(C)C(=CCC4C5(C)CCC(OC6OCC(O)C(O)C6OC6OCC(O)C(O)C6OC6OCC(O)C(OC7OC(CO)C(O)C(O)C7O)C6O)C(C)(C)C5CCC43C)C2C1 (stereo not given),57.8 µM,–,–,–,–,–,–,–,–
CCN1CCCCCCCCCC(=N/O)/C(=N\O)C1,> 100 µM,–,–,–,–,–,–,–,–
Cc1[nH]c(N)nc(=S)c1CCCNc1ccccc1,> 100 µM,–,–,–,–,–,–,–,–
COC(=O)C1C(=O)C(C(=O)OC)C2CCC1N2C (stereo not given),73.8 µM,–,–,–,–,–,–,–,–
CCP(C)(=O)CC,–,> 100 µM,> 100 µM,> 100 µM,> 100 µM,> 100 µM,> 100 µM,> 100 µM,TGI [6]: > 100 µM
